Key:
DGKζ = DGKζ (Homo sapiens (Human), UniProt Q13574); assay: Biochemical DGK IC50 assay, DGKζ ADP-Glo assay; conditions: 0.5 nM enzyme, 140 μM ATP, 80 μM DAG; read-out: DGKζ ADP-Glo assay IC50
Summary of the method: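 Full-length human DGKζ, His-TEV tagged and purified from baculovirus-infected Sf9 cells, assayed by ADP-Glo with DAG/PS lipid micelle substrate prepared in 25 mM HEPES pH 7.0 with octyl glucoside. Final compound concentrations spanned 1.55–10000 nM or 23.3–150000 nM.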

DGKα = DGKα (Homo sapiens (Human), UniProt P23743); assay: Biochemical DGK IC50 assay, DGKα ADP-Glo assay; conditions: 7.5 nM enzyme, 140 μM ATP, 80 μM DAG
DGKα, sequence (P23743 whole entry): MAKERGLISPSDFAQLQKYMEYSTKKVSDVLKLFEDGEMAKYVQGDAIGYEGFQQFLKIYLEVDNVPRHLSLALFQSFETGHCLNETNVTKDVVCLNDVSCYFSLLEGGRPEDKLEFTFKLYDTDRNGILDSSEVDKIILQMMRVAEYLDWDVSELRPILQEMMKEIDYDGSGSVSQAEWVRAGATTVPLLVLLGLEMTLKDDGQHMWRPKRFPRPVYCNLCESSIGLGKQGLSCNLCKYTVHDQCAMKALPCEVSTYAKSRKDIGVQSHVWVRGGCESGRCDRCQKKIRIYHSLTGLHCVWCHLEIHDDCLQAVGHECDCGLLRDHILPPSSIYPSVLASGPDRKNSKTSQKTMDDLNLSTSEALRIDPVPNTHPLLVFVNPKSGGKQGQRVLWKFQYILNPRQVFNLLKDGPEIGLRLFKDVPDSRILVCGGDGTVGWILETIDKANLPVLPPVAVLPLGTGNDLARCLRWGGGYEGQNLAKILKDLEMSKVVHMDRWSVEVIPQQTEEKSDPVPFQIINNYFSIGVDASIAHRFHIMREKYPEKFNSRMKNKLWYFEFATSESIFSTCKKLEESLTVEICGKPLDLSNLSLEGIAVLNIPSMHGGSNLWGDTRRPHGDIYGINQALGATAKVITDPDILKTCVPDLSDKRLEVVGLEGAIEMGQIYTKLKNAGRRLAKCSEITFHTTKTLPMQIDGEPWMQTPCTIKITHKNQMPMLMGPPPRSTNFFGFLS
Summary of the method: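 ADP-Glo read-out with full-length DGKα on DAG/PS lipid micelle substrate in 25 mM HEPES pH 7.0, 0.5 mM EDTA, 160 mM octyl β-D-glucopyranoside. Compound final concentrations spanned 1.55˜10000 nM or 23.3˜150000 nM.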

DGKζ, sequence (Q13574 other isoform, or with tags, fused parts or gaps): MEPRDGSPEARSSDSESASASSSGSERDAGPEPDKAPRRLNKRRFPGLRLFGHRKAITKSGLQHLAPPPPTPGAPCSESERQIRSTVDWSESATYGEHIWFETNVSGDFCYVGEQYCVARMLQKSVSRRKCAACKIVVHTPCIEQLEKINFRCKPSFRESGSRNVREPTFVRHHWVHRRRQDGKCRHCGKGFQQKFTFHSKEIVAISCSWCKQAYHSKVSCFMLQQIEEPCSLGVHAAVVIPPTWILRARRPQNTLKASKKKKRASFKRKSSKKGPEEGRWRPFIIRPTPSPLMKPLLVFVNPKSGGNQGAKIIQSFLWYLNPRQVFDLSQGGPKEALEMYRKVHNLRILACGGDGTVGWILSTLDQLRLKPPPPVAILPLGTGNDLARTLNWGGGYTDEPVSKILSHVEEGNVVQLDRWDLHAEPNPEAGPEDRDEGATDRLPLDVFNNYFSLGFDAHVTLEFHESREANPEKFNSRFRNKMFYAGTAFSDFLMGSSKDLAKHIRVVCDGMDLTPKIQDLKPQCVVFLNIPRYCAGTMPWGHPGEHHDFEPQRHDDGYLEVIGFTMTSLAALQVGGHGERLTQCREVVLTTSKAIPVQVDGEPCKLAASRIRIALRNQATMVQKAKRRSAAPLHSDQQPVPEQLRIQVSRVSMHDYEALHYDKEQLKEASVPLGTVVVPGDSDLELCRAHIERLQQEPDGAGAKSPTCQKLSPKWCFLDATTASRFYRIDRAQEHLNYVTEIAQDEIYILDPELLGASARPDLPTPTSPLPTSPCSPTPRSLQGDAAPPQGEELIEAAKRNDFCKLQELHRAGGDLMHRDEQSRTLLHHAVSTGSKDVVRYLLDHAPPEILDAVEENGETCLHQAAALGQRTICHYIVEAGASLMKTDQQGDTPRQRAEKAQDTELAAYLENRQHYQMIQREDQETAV

SMILES | IC50 (DGKζ) [nM] | IC50 (DGKα) [nM]
CC[C@H]1CN(C(C)c2ncccc2COC)[C@H](CC)CN1c1cc(=O)n(C)c2cn(CC#N)nc12 (stereo partly shown) [Compound A93] | 3660 | > 10000
CC[C@@H]1CN(c2cc(=O)n(C)c3cn(CC#N)nc23)[C@@H](C)CN1C(c1ccc(F)cc1)c1ccc(C(F)(F)F)cn1 (stereo partly drawn) [Compound A332, 2-(7-((2S,5R)-5-ethyl-4-((4-fluorophenyl)(5-(trifluoromethyl)pyridin-2-yl)methyl)-2-methylpiperazin-1-yl)-4-methyl-5-oxo-4,5-dihydro-2H-pyrazolo[4,3-b]pyridin-2-yl)acetonitrile] | 169 | 123
CC[C@H]1CN(C(C)c2ccc(F)cc2C(=O)N(C)C)[C@H](CC)CN1c1cc(=O)n(C)c2cn(CC#N)nc12 (stereo partly shown) [Compound A292] | 1910 | > 150000
CC(c1ccc2c(c1)OC1(CC1)CO2)N1C[C@H](C)N(c2cc(=O)n(C)c3cn(CC#N)nc23)C[C@H]1C (stereo partly drawn) [Compound A323, 2-(7-((2S,5R)-4-(1-(3H-spiro[benzo[b][1,4]dioxine-2,1′-cyclopropan]-7-yl)ethyl)-2,5-dimethylpiperazin-1-yl)-4-methyl-5-oxo-4,5-dihydro-2H-pyrazolo[4,3-b]pyridin-2-yl)acetonitrile] | 7 | 10700
CC(c1ccc(F)cc1C(F)(F)F)N1C[C@H](C)N(c2cc(=O)n(C)c3cn(CC#N)nc23)C[C@H]1C (single isomer, unassigned) [Compound A236b] | 178 | 77400
CCCn1c(C(C)N2C[C@H](CC)N(c3cc(=O)n(C)c4cn(CC#N)nc34)C[C@H]2CC)nc2ccccc21 (stereo partly drawn) [Compound A192, 2-(7-((2S,5R)-2,5-diethyl-4-(1-(1-propyl-1H-benzo[d]imidazol-2-yl)ethyl)piperazin-1-yl)-4-methyl-5-oxo-4,5-dihydro-2H-pyrazolo[4,3-b]pyridin-2-yl)acetonitrile] | 59 | > 10000
Cc1cnc2ccc([C@H](C)N3C[C@H](C)N(c4cc(=O)[nH]c5cn(CC#N)nc45)C[C@H]3C)cc2n1 [Compound A308] | 72 | 88300
CC[C@H]1CN(C(C)c2cnc(Cl)cc2C(F)(F)F)[C@H](CC)CN1c1cc(=O)n(C)c2cn(CC#N)nc12 (stereo partly shown) [Compound A226] | 2290 | 8430
CC[C@H]1CN(C(C)c2ccc(C(F)(F)F)cc2F)[C@H](CC)CN1c1cc(=O)n(C)c2c[nH]nc12 (single isomer, unassigned) [Compound A231a] | > 10000 | 1120
CC[C@H]1CN(C(C)c2cc(C(F)(F)F)nn2CC)[C@H](CC)CN1c1cc(=O)n(C)c2cn(CC#N)nc12 (stereo partly shown) [Compound A211] | 234 | 2760
CC[C@H]1CN(C(C)c2nc3cc(C(F)(F)F)ccc3n2CC)[C@H](CC)CN1c1cc(=O)n(C)c2cn(CC#N)nc12 (single isomer, unassigned) [Compound A203b] | 233 | > 10000
CC(OC(F)F)c1cc(F)ccc1C(C)N1C[C@H](C)N(c2cc(=O)n(C)c3cn(CC#N)nc23)C[C@H]1C (stereo partly drawn) [Compound A328, 2-(7-((2S,5R)-4-(1-(2-(1-(difluoromethoxy)ethyl)-4-fluorophenyl)ethyl)-2,5-dimethylpiperazin-1-yl)-4-methyl-5-oxo-4,5-dihydro-2H-pyrazolo[4,3-b]pyridin-2-yl)acetonitrile] | 143 | 83000
CC[C@H]1CN(C(C)c2ccc3ccncc3c2)[C@H](CC)CN1c1cc(=O)n(C)c2cn(CC#N)nc12 (stereo partly drawn) [Compound A62, 2-(7-((2S,5R)-2,5-diethyl-4-(1-(isoquinolin-7-yl)ethyl)piperazin-1-yl)-4-methyl-5-oxo-4,5-dihydro-2H-pyrazolo[4,3-b]pyridin-2-yl)acetonitrile] | 48 | 40
CC[C@H]1CN(C(C)c2ccc3nccnc3c2)[C@H](CC)CN1c1cc(=O)n(C)c2cn(CC#N)nc12 (single isomer, unassigned) [Compound A28b] | 463 | 983
